# Results: patent publication US20230148184A1, “COMPOUNDS AND METHODS FOR MODULATING SPLICING” (REMIX THERAPEUTICS INC., priority 2020, published 2023)
# pIC50: −log10 of the molar value.
# What was measured:
# Type in all cases: cell-based
# [1] = system: HTT CJ mRNA; assay: Gene panel canonical junction qPCR assay, HTT; conditions: decrease in CJ mRNA levels, RT-qPCR
# Description: (§1) Compounds described herein were used to modulate RNA transcript abundance in cells. The expression of a target mRNA was measured by detecting the formation of an exon-exon junction in the canonical transcript (CJ). A compound mediated exon-inclusion event was detected by observing an increase in formation of a new junction with an alternative exon (AJ). Real-time qPCR assays were used to detect these splicing switches and interrogate the potency of various compounds towards different target genes. A high-throughput real time quantitative PCR (RT-qPCR) assay was developed to measure these two isoforms of the mRNA (CJ and AJ) for an exemplary gene, HTT, together with a control housekeeping gene, GAPDH or GUSB or PPIA, used for normalization. Briefly, the A673 or K562 cell line was treated with various compounds described herein (e.g., compounds of Formula (I)). After treatment, the levels of the HTT mRNA targets were determined from each sample of cell lysate by cDNA synthesis followed by qPCR.
# (§2) The A673 cell line was cultured in DMEM with 10% FBS. Cells were diluted with full growth media and plated in a 96-well plate (15,000 cells in 100 ul media per well). The plate was incubated at 37° C. with 5% CO2 for 24 hours to allow cells to adhere. An 11-point 3-fold serial dilution of the compounds was made in DMSO then diluted in media in an intermediate plate. Compounds were transferred from the intermediate plate to the cell plate with the top dose at a final concentration of 10 uM in the well. Final DMSO concentration was kept at or below 0.25%. The cell plate was returned to the incubator at 37° C. with 5% CO2 for an additional 24 hours.
# (§3) The K562 cell line was cultured in IMDM with 10% FBS. For K562, cells were diluted with full growth media and plated in either a 96-well plate (50,000 cells in 50 uL media per well) or a 384-well plate (8,000-40,000 cells in 45 uL media per well). An 11-point 3-fold serial dilution of the compounds were made in DMSO then diluted in media in an intermediate plate. Compound was transferred from the intermediate plate to the cell plate with the top dose at a final concentration of 10 uM in the well. Final DMSO concentration was kept at or below 0.25%. Final volume was 100 uL for 96-well plate and 50 uL for 384-well plate. The cell plate was then placed in an incubator at 37° C. with 5% CO2 for 24 hours.
# (§4) The cells were then gently washed with 50 uL-100 uL cold PBS before proceeding to addition of lysis buffer. 30 uL-50 uL of room temperature lysis buffer with DNAse I (and optionally RNAsin) was added to each well. Cells were shaken/mixed thoroughly at room temperature for 5-10 minutes for lysis to take place and then 3 uL-5 uL of room temperature stop solution was added and wells were shaken/mixed again. After 2-5 minutes, the cell lysate plate was transferred to ice for RT-qPCR reaction setup. The lysates could also be frozen at −80° C. for later use.
# (§5) In some cases, a direct lysis buffer was used. An appropriate volume of 3× lysis buffer (10 mM Tris, 150 mM NaCl, 1.5%-2.5% Igepal and 0.1-1 U/uL RNAsin, pH 7.4) was directly added to either K562 or A673 cells in media and mixed by pipetting 3 times. The plates were then incubated at room temperature with shaking/rocking for 20-50 minutes to allow for lysis to take place. After this time, the cell lysate plate was transferred to ice to set up for the RT-qPCR reactions. The lysates could also be frozen at −80° C. for later use.
# (§6) To set up 10 uL RT-qPCR reactions, cell lysates were transferred to 384-well qPCR plates containing the master mix according to the table below. The plates were sealed, gently vortexed, and spun down before the run. The volumes were adjusted accordingly in some instances where the reaction was carried in 20 uL. The table below summarizes the components of the RT-qPCR reactions:
# (§7) The RT-qPCR reaction was performed using a QuantStudio (ThermoFisher) under the following fast cycling conditions. […]
# [2] = system: SMN2 CJ mRNA; assay: Gene panel canonical junction qPCR assay, SMN2; conditions: decrease in CJ mRNA levels, RT-qPCR
# Description: as §1, §2, §3, §4, §5, §6, §7
# [3] = system: HTT mRNA; assay: RT-qPCR splicing assay for HTT mRNA isoforms (canonical junction CJ and alternative junction AJ); conditions: A673 or K562 cell line, 24 hours compound treatment; for pIC50: decrease in CJ mRNA; for AC50: increase in AJ mRNA
# Description: as §1
# Cells-to-CT 1-step kit: ThermoFisher A25602, Cells-to-CT lysis reagent: ThermoFisher 4391851C, TaqMan™ Fast Virus 1-Step Master Mix: ThermoFisher 4444436 GAPDH: VIC-PL, ThermoFisher 4326317E (Assay: Hs99999905_m1)—used for K562/suspension cell lines GUSB: VIC-PL, ThermoFisher 4326320E (Assay: Hs99999908_m1)—used for K562/suspension cell lines PPIA: VIC-PL, ThermoFisher 4326316E (Assay: Hs99999904_m1)—used for A673/adherent cell lines
# as §2, §3, §4
# as §5, with “use. […]” for “use.”
# [4] = system: Target C CJ mRNA; assay: Gene panel canonical junction qPCR assay, Target C; conditions: decrease in CJ mRNA levels, RT-qPCR
# Description: as §1, §2, §3, §4, §5, §6, §7
SMILES,pIC50 [1],pIC50 [2],pIC50 [3],AC50 [3],pIC50 [4]
"CC1(C)CC(Nc2ccc3c(n2)CCOc2cc(-n4cccn4)ccc2-3)CC(C)(C)N1 [Compound 137, 13-(pyrazol-1-yl)-N-(2,2,6,6-tetramethylpiperidin-4-yl)-10-oxa-6-azatricyclo [9.4.0.0^[2,7]]pentadeca-1(11),2(7),3,5,12,14-hexaen-5-amine]",< 5.00,< 5.00,5.00 to 6.00,1000 to 10000 nM,5.00 to 6.00
"c1cnn(-c2ccc3c(c2)OCc2nc(N[C@@H]4C[C@H]5CC[C@@H](C4)N5)ccc2-3)c1 [Compound 135, (1R,3S,5S)—N-[8-(pyrazol-1-yl)-5H-chromeno[3,4-b]pyridin-3-yl]-8-azabicyclo[3.2.1]octan-3-amine]",5.00 to 6.00,5.00 to 6.00,5.00 to 6.00,1000 to 10000 nM,5.00 to 6.00
[2H]C([2H])([2H])N(c1ccc2c(n1)OCc1cc(-n3cccn3)ccc1-2)[C@@H]1C[C@H]2CCC[C@@H](C1)N2 [Compound 200],> 7.00,> 7.00,> 7.00,< 100 nM,6.00 to 7.00
c1cnn(-c2ccc3c(c2)COc2nc(NC4CCNCC4)ccc2-3)c1 [Compound 174],< 5.00,5.00 to 6.00,< 5.00,> 10000 nM,< 5.00
CN(C)[C@H]1[C@@H]2CN(c3ccc4c(n3)OCc3cc(-n5cccn5)ccc3-4)C[C@@H]21 [Compound 197],5.00 to 6.00,< 5.00,5.00 to 6.00,> 10000 nM,< 5.00
CCN(c1ccc2c(n1)OCc1cc(-n3cccn3)ccc1-2)C1CC(C)(C)NC(C)(C)C1 [Compound 189],< 5.00,5.00 to 6.00,< 5.00,1000 to 10000 nM,< 5.00
CN(c1ccc2c(n1)OCc1cc(-c3cnn(C)c(=O)c3)ccc1-2)[C@@H]1C[C@H]2CC[C@@H](C1)N2 [Compound 160],> 7.00,> 7.00,> 7.00,< 100 nM,> 7.00
c1cnn(-c2ccc3c(c2)COc2nc(N[C@@H]4C[C@H]5CCC[C@@H](C4)N5)ccc2-3)c1 [Compound 190],> 7.00,> 7.00,> 7.00,100 to 1000 nM,6.00 to 7.00
c1cnn(-c2ccc3c(c2)COc2nc(NC4CNC4)ccc2-3)c1 [Compound 166],< 5.00,5.00 to 6.00,< 5.00,> 10000 nM,< 5.00
c1cnn(-c2ccc3c(c2)COc2nc(N4CCC5(CCNC5)CC4)ccc2-3)c1 [Compound 184],5.00 to 6.00,5.00 to 6.00,5.00 to 6.00,1000 to 10000 nM,5.00 to 6.00
CCN(c1ccc2c(n1)OCc1cc(-n3cccn3)ccc1-2)[C@@H]1C[C@H]2CC[C@@H](C1)N2 [Compound 191],6.00 to 7.00,6.00 to 7.00,6.00 to 7.00,1000 to 10000 nM,5.00 to 6.00
